What all share (assay): Minimum inhibitory concentration by agar dilution, Mueller Hinton Agar (NCCLS M7-A)
Holding throughout (type): cell-based
(In general: In agar dilution, organisms are placed on agar that contains the substance at set levels.)

In one test the test system is Serratia marcescens. The conditions noted are these: Culture No. 6888, MHA, 35° C., 20 hours. Here is the method:
(§1) The compounds of this invention and their respective pharmaceutically acceptable salts have antibiotic activity against a variety of gram-negative bacteria including Escherichia coli, Klebsiella pneumoniae, and Pseudomonas aeruginosa. The compounds are useful for treating bacterial infections in animals, including and most preferably humans. Compounds of the invention are tested for in vitro antimicrobial activity using standard testing procedures such as the determination of minimum inhibitory concentration (MIC) by methods described in "Methods for Dilution Antimicrobial Susceptibility Tests for Bacteria That Grow Aerobically" (M7-A) Published December 1985 by the National Committee for Clinical Laboratory Standards, 771 East Lancaster Avenue, Villanova, PA 19084. Briefly, MIC values are determined in unsupplemented Mueller Hinton Agar (MHA). The compounds tested are diluted serially into molten MHA at 47° C. The agar is poured into petri dishes and allowed to harden. The various bacteria used for testing are grown overnight on MHA at 35° C. and transferred to Tryptiease Soy Broth (TSB) until a turbidity of 0.5 McFarland standard is obtained. The bacteria are diluted one to twenty in TSB and inoculated on the plates (1 μl using a Steers replicator).

Another test deals with Klebsiella pneumoniae. The settings on record: Culture No. 58, MHA, 35° C., 20 hours. Here is the method:
as §1

A further test concerns Enterobacter cloacae. The settings on record: 20 h, 35° C. As for the experimental part:
as §1

A further test concerns Escherichia coli. The conditions noted are these: 20 h, 35° C. Here is the method: as §1
A further test relates to Citrobacter freundii. The settings on record: Culture No. 3507, MHA, 35° C., 20 hours. As for the experimental part:
as §1

For the next test, the system named is Klebsiella oxytoca. The settings on record: 20 h, 35° C. Here is the method: as §1
The subject of a further test is Streptococcus pyogenes. The conditions noted are these: Culture No. 152, MHA, 35° C., 20 hours. As for the experimental part: as §1
The test system of a further test is Proteus vulgaris. The settings on record: Culture No. 9679, MHA, 35° C., 20 hours. Here is the method: as §1
The subject of the next test is Streptococcus faecalis. The settings on record: Enterococcus faecalis; Culture No. 694; MHA, 35° C., 20 hours. As for the experimental part:
as §1

In the next test the test system is Staphylococcus aureus. The conditions noted are these: MHA, 35° C., 20 hours; for MIC: Staphylococcus aureus, Culture No. 6675. Here is the method:
as §1

Another test has as its system Pseudomonas aeruginosa. The settings on record: 20 h, 35° C. As for the experimental part: as §1
Another test deals with Streptococcus pneumoniae. The conditions noted are these: Culture No. 41, MHA, 35° C., 20 hours. Here is the method: as §1

The record followed here is patent US4883869A, “Novel beta-lactams containing amino acid substituents” (The Upjohn Company, priority 1988, dated 1989).

For orientation: MIC means the lowest concentration that inhibits growth of the organism. A higher MIC goes with a need for much substance.

Where a name gives a salt, the structure may show the parent alone.

For the compound `Nc1nc(C(=NOCC(=O)O)C(=O)NC2C(=O)N(S(=O)(=O)O)C2COC(=O)CNC=O)cs1` (mixture of isomers) [Compound 7, Cis-(±)-[2'-(2"-amino-4"-thiazolyl)-(Z)-2'-(1"-carboxymethoxy)imino]acetamido-4-[N-formylglycinoyloxymethyl]-2-oxo-1-azetidinesulfonic acid monopotassium salt], the minimum inhibitory concentration (MIC) turned out to be 0.25 µg/mL with Serratia marcescens; 0.06 µg/mL in the test with Klebsiella pneumoniae; 64 µg/mL against Enterobacter cloacae (Culture No. 9381, MHA); 0.125 µg/mL against Enterobacter cloacae (Culture No. 9382, MHA); 0.06 µg/mL in the test with Escherichia coli (Culture No. 311, MHA); 0.125 µg/mL in the test on Escherichia coli (Culture No. 9379, MHA). Moreover, the MIC against Escherichia coli (Culture No. 9380, MHA) was 0.25 µg/mL; in the test with Escherichia coli (Culture No. 9451, MHA) it was 0.125 µg/mL; in the test on Citrobacter freundii it was 0.125 µg/mL; against Klebsiella oxytoca (Culture No. 9383, MHA), 0.5 µg/mL; with Klebsiella oxytoca (Culture No. 9384, MHA) it was 0.06 µg/mL; against Streptococcus pyogenes, 16 µg/mL. For the same compound, the MIC with Proteus vulgaris is below 0.03 µg/mL; with Streptococcus faecalis, above 128 µg/mL; in the test with Staphylococcus aureus, above 128 µg/mL; in the test on Pseudomonas aeruginosa (Culture No. 6432, MHA), 8 µg/mL; against Pseudomonas aeruginosa (Culture No. 6676, MHA) it was 4 µg/mL; with Pseudomonas aeruginosa (Culture No. 9191, MHA), 4 µg/mL. Also, the MIC was 8 µg/mL in the test on Pseudomonas aeruginosa (Culture No. 30133, MHA) and 64 µg/mL in the test with Streptococcus pneumoniae. Also, the “Minimum Inhibitory Concentration” value in the test with Staphylococcus aureus (Culture No. 3665) and in the test with Staphylococcus aureus (Culture No. 6685) was above 128 MCG per ML throughout.

On to `NCC(=O)OCC1C(NC(=O)C(=NOCC(=O)O)c2csc(N)n2)C(=O)N1S(=O)(=O)O` (mixture of isomers) [Compound 11, Cis-(±)-3-[[2'-(2"-amino-4"-thiazolyl)-(Z)-2'-(1'"-carboxymethoxy)imino]acetamido]-4-[N-glycinoyloxymethyl]-2-oxo-1-azetidinesulfonic acid], for which the MIC is 0.5 µg/mL in the test with Serratia marcescens; 0.125 µg/mL against Klebsiella pneumoniae; 64 µg/mL with Enterobacter cloacae (Culture No. 9381, MHA); 0.25 µg/mL against Enterobacter cloacae (Culture No. 9382, MHA); 0.125 µg/mL with Escherichia coli (Culture No. 311, MHA); 0.25 µg/mL with Escherichia coli (Culture No. 9379, MHA). The MIC in the test on Escherichia coli (Culture No. 9380, MHA) amounted to 0.25 µg/mL; against Citrobacter freundii it was 0.25 µg/mL; against Klebsiella oxytoca (Culture No. 9383, MHA) it was 1 µg/mL; with Klebsiella oxytoca (Culture No. 9384, MHA) it was 0.125 µg/mL; against Streptococcus pyogenes, 16 µg/mL; in the test on Proteus vulgaris it was 0.125 µg/mL. Also, the MIC with Streptococcus faecalis was above 128 µg/mL; in the test with Staphylococcus aureus, above 128 µg/mL; with Pseudomonas aeruginosa (Culture No. 6432, MHA) it was 64 µg/mL; in the test on Pseudomonas aeruginosa (Culture No. 6676, MHA) it was 8 µg/mL; with Pseudomonas aeruginosa (Culture No. 9191, MHA), 8 µg/mL; against Pseudomonas aeruginosa (Culture No. 30133, MHA), 16 µg/mL. Besides, 128 µg/mL was the least that counted as inhibitory with Streptococcus pneumoniae (MIC). Besides, the “Minimum Inhibitory Concentration” value in the test on Staphylococcus aureus (Culture No. 3665) and in the test with Staphylococcus aureus (Culture No. 6685) was above 128 MCG per ML throughout.
